Assay results published in ChEMBL document CHEMBL4118131, “Synthesis of 1,2,4-triazole-linked urea/thiourea conjugates as cytotoxic and apoptosis inducing agents” (Bioorg Med Chem Lett, 2018).
Active and inactive are the calls of the source. The rule behind the calls is not given here.

Key:
MCF7 [1] = test: Induction of apoptotic morphological changes in human MCF7 cells assessed as induction of membrane blebbing at 8 uM incubated for 48 hrs by AO/EB staining staining based fluorescence microscopy; type: functional, cell-based
MCF7 [2] = test: Induction of cell cycle arrest in human MCF7 cells assessed as accumulation at G0/G1 phase at 8 uM incubated for 48 hrs by propidium iodide staining based flow cytometry (reference value: 53.01%); type: functional
MCF7 [3] = test: Induction of apoptosis in human MCF7 cells assessed as necrotic cells level at 4 uM incubated for 48 hrs by Annexin V and propidium iodide staining based flow cytometry (reference value: 0.46%); type: functional
MCF7 [4] = test: Inhibition of colony formation in human MCF7 cells assessed as reduction in colony count incubated for 24 hrs by crystal violet staining based clonogenic cell reproduction assay; type: functional
MCF7 [5] = test: Induction of apoptosis in human MCF7 cells assessed as viable cells level at 4 uM incubated for 48 hrs by Annexin V and propidium iodide staining based flow cytometry (reference value: 80.6%); type: functional
MCF7 [6] = test: Induction of apoptosis in human MCF7 cells incubated for 48 hrs by Annexin V and propidium iodide staining based flow cytometry (reference value: 7.4%); type: functional, cell-based
MCF7 [7] = test: Induction of apoptotic morphological changes in human MCF7 cells assessed as induction of chromatin condensation at 8 uM incubated for 48 hrs by AO/EB staining staining based fluorescence microscopy; type: functional, cell-based
MCF7 [8] = test: Induction of apoptosis in human MCF7 cells assessed as viable cells level at 8 uM incubated for 48 hrs by Annexin V and propidium iodide staining based flow cytometry (reference value: 80.6%); type: functional
MCF7 [9] = test: Induction of apoptotic morphological changes in human MCF7 cells assessed as induction of membrane blebbing at 4 uM incubated for 48 hrs by AO/EB staining staining based fluorescence microscopy; type: functional, cell-based
[10] = Selectivity index, ratio of IC50 for cytotoxicity in human L-132 cells to IC50 for cytotoxicity in human MCF7 cells; type: toxicity, cell-based; details: L-132 cells and MCF7 cells, read-out: Ratio IC50
MCF7 [11] = test: Induction of cell cycle arrest in human MCF7 cells assessed as accumulation at S phase at 4 uM incubated for 48 hrs by propidium iodide staining based flow cytometry (reference value: 12.28%); type: functional
MCF7 [12] = test: Induction of apoptosis in human MCF7 cells assessed as viable cells level at 12 uM incubated for 48 hrs by Annexin V and propidium iodide staining based flow cytometry (reference value: 80.6%); type: functional
MCF7 [13] = test: Induction of cell cycle arrest in human MCF7 cells assessed as accumulation at S phase at 8 uM incubated for 48 hrs by propidium iodide staining based flow cytometry (reference value: 12.28%); type: functional
MCF7 [14] = test: Induction of apoptotic nuclear morphological changes in human MCF7 cells incubated for 48 hrs by DAPI nuclear staining based fluorescence microscopy; type: functional, cell-based
MCF7 [15] = test: Induction of cell cycle arrest in human MCF7 cells assessed as accumulation at subG1 phase at 4 uM incubated for 48 hrs by propidium iodide staining based flow cytometry (reference value: 0.88%); type: functional
MCF7 [16] = test: Induction of cell cycle arrest in human MCF7 cells assessed as accumulation at G2/M phase at 8 uM incubated for 48 hrs by propidium iodide staining based flow cytometry (reference value: 32.51%); type: functional
MCF7 [17] = test: Induction of apoptotic nuclear morphological changes in human MCF7 cells assessed as induction of horse shoe shaped nucleus at 12 uM incubated for 48 hrs by DAPI nuclear staining based fluorescence microscopy; type: functional, cell-based
MCF7 [18] = test: Induction of late apoptosis in human MCF7 cells at 12 uM incubated for 48 hrs by AO/EB staining staining based fluorescence microscopy; type: functional, cell-based
MCF7 [19] = test: Induction of apoptosis in human MCF7 cells assessed as late apoptosis cells level at 12 uM incubated for 48 hrs by Annexin V and propidium iodide staining based flow cytometry (reference value: 7.4%); type: functional
MCF7 [20] = test: Induction of cell cycle arrest in human MCF7 cells assessed as accumulation at G0/G1 phase at 4 uM incubated for 48 hrs by propidium iodide staining based flow cytometry (reference value: 53.01%); type: functional
A549 = test: Cytotoxicity in human A549 cells assessed as reduction in cell viability incubated for 48 hrs by MTT assay; type: functional, cell-based; details: A549, 48 h
MCF7 [21] = test: Induction of apoptosis in human MCF7 cells assessed as early apoptosis cells level at 8 uM incubated for 48 hrs by Annexin V and propidium iodide staining based flow cytometry (reference value: 11.54%); type: functional
MCF7 [22] = test: Induction of cell cycle arrest in human MCF7 cells assessed as accumulation at subG1 phase at 8 uM incubated for 48 hrs by propidium iodide staining based flow cytometry (reference value: 0.88%); type: functional
MCF7 [23] = test: Induction of apoptosis in human MCF7 cells assessed as necrotic cells level at 12 uM incubated for 48 hrs by Annexin V and propidium iodide staining based flow cytometry (reference value: 0.46%); type: functional
MDA-MB-231 = test: Cytotoxicity in human MDA-MB-231 cells assessed as reduction in cell viability incubated for 48 hrs by MTT assay; type: functional, cell-based; details: MDA-MB-231, 48 h
MCF7 [24] = test: Induction of apoptosis in human MCF7 cells assessed as necrotic cells level at 8 uM incubated for 48 hrs by Annexin V and propidium iodide staining based flow cytometry (reference value: 0.46%); type: functional
MCF7 [25] = test: Cytotoxicity in human MCF7 cells assessed as reduction in cell viability incubated for 48 hrs by MTT assay; type: functional, cell-based; details: MCF7, 48 h
MCF7 [26] = test: Induction of apoptotic nuclear morphological changes in human MCF7 cells assessed as induction of DNA fragmentation at 12 uM incubated for 48 hrs by DAPI nuclear staining based fluorescence microscopy; type: functional, cell-based
MCF7 [27] = test: Induction of apoptosis in human MCF7 cells assessed as late apoptosis cells level at 8 uM incubated for 48 hrs by Annexin V and propidium iodide staining based flow cytometry (reference value: 7.4%); type: functional
MCF7 [28] = test: Induction of cell cycle arrest in human MCF7 cells assessed as accumulation at G2/M phase at 4 uM incubated for 48 hrs by propidium iodide staining based flow cytometry (reference value: 32.51%); type: functional
MCF7 [29] = test: Induction of apoptotic nuclear morphological changes in human MCF7 cells assessed as induction of cell shrinkage and round shape cells at 4 to 8 uM incubated for 48 hrs by DAPI nuclear staining based fluorescence microscopy; type: functional
MCF7 [30] = test: Induction of apoptotic morphological changes in human MCF7 cells assessed as induction of DNA fragmentation at 8 uM incubated for 48 hrs by AO/EB staining staining based fluorescence microscopy; type: functional, cell-based
MCF7 [31] = test: Induction of apoptosis in human MCF7 cells assessed as late apoptosis cells level at 4 uM incubated for 48 hrs by Annexin V and propidium iodide staining based flow cytometry (reference value: 7.4%); type: functional
MCF7 [32] = test: Induction of apoptosis in human MCF7 cells assessed as early apoptosis cells level at 12 uM incubated for 48 hrs by Annexin V and propidium iodide staining based flow cytometry (reference value: 11.54%); type: functional
L132 = test: Cytotoxicity in human L-132 cells assessed as reduction in cell viability incubated for 48 hrs by MTT assay; type: cell-based; details: L132, 48 h
B16-F10 = test: Cytotoxicity in mouse B16/F10 cells assessed as reduction in cell viability incubated for 48 hrs by MTT assay; type: functional, cell-based; details: B16-F10, 48 h
MCF7 [33] = test: Induction of apoptosis in human MCF7 cells assessed as early apoptosis cells level at 4 uM incubated for 48 hrs by Annexin V and propidium iodide staining based flow cytometry (reference value: 11.54%); type: functional
DU-145 = test: Cytotoxicity in human DU145 cells assessed as reduction in cell viability incubated for 48 hrs by MTT assay; type: functional, cell-based; details: DU-145, 48 h

Structure (SMILES): N#Cc1ccc(CN(C(=S)Nc2cc(C(F)(F)F)cc(C(F)(F)F)c2)n2cnnc2)cc1
- Activity (MCF7 [1]): Active
- Activity (MCF7 [2]): 69.97%
- Activity (MCF7 [3]): 2.78%
- inhibition (MCF7 [4]): Dose-dependent effect
- Activity (MCF7 [5]): 62.98%
- Activity (MCF7 [6]): Dose-dependent effect
- Activity (MCF7 [7]): Active
- Activity (MCF7 [8]): 62.98%
- Activity (MCF7 [9]): Active
- selectivity ratio [10]: 2
- Activity (MCF7 [11]): 11.33%
- Activity (MCF7 [12]): 44.86%
- Activity (MCF7 [13]): 10.13%
- Activity (MCF7 [14]): Dose-dependent effect
- Activity (MCF7 [15]): 1.18%
- Activity (MCF7 [16]): 14.34%
- Activity (MCF7 [17]): Active
- Activity (MCF7 [18]): Active
- Activity (MCF7 [19]): 38.35%
- Activity (MCF7 [20]): 61.18%
- IC50 (A549): 9.39 µM
- Activity (MCF7 [21]): 9.63%
- Activity (MCF7 [22]): 3.57%
- Activity (MCF7 [23]): 9.26%
- IC50 (MDA-MB-231): 9.28 µM
- Activity (MCF7 [24]): 2.78%
- IC50 (MCF7 [25]): 7.22 µM
- Activity (MCF7 [26]): Active
- Activity (MCF7 [27]): 24.61%
- Activity (MCF7 [28]): 25.01%
- Activity (MCF7 [29]): Active
- Activity (MCF7 [30]): Active
- Activity (MCF7 [31]): 24.61%
- Activity (MCF7 [32]): 7.53%
- IC50 (L132): 15.2 µM
- IC50 (B16-F10): 4.51 µM
- Activity (MCF7 [33]): 9.63%
- IC50 (DU-145): 11.8 µM

Structure (SMILES): Cc1ccsc1CN(C(=O)Nc1cccc(Cl)c1)n1cnnc1
- IC50 (A549): 21.4 µM
- IC50 (MDA-MB-231): 40.3 µM
- IC50 (MCF7 [25]): 31.2 µM
- IC50 (B16-F10): > 50 µM
- IC50 (DU-145): 20.4 µM

Structure (SMILES): COc1ccc(CN(C(=O)Nc2ccc(Cl)c(C(F)(F)F)c2)n2cnnc2)cc1OC
- IC50 (A549): 29.3 µM
- IC50 (MDA-MB-231): > 50 µM
- IC50 (MCF7 [25]): > 50 µM
- IC50 (B16-F10): > 50 µM
- IC50 (DU-145): > 50 µM

Structure (SMILES): CC1CCC(NC(=O)N(Cc2ccccn2)n2cnnc2)CC1 (stereo not drawn)
- IC50 (A549): 43.7 µM
- IC50 (MDA-MB-231): 33.2 µM
- IC50 (MCF7 [25]): 34 µM
- IC50 (B16-F10): 39.7 µM
- IC50 (DU-145): 20.1 µM

Structure (SMILES): COc1cc(CN(C(=O)Nc2ccc(C#N)cc2)n2cnnc2)cc(OC)c1OC
- IC50 (A549): 20.7 µM
- IC50 (MDA-MB-231): > 50 µM
- IC50 (MCF7 [25]): > 50 µM
- IC50 (B16-F10): 21 µM
- IC50 (DU-145): 20.6 µM

Structure (SMILES): Cc1ccsc1CN(C(=O)Nc1cccc(C#N)c1)n1cnnc1
- IC50 (A549): 26 µM
- IC50 (MDA-MB-231): > 50 µM
- IC50 (MCF7 [25]): > 50 µM
- IC50 (B16-F10): 28.9 µM
- IC50 (DU-145): 31 µM

Structure (SMILES): COc1ccc(CN(C(=S)Nc2cc(C(F)(F)F)cc(C(F)(F)F)c2)n2cnnc2)cc1OC
- IC50 (A549): 16.2 µM
- IC50 (MDA-MB-231): 25.3 µM
- IC50 (MCF7 [25]): 15.5 µM
- IC50 (B16-F10): 8.54 µM
- IC50 (DU-145): 26.4 µM

Structure (SMILES): CCc1ccc(NC(=S)N(Cc2cc(OC)c(OC)c(OC)c2)n2cnnc2)cc1
- IC50 (A549): 17.2 µM
- IC50 (MDA-MB-231): 24.8 µM
- IC50 (MCF7 [25]): 24.8 µM
- IC50 (B16-F10): 24.7 µM
- IC50 (DU-145): 21.4 µM

Structure (SMILES): Cc1ccsc1CN(C(=O)Nc1ccccc1)n1cnnc1
- IC50 (A549): 22.1 µM
- IC50 (MDA-MB-231): > 50 µM
- IC50 (MCF7 [25]): > 50 µM
- IC50 (B16-F10): 31.1 µM
- IC50 (DU-145): > 50 µM

Structure (SMILES): COc1ccc(CN(C(=O)Nc2ccc(Cl)cc2)n2cnnc2)cc1OC
- IC50 (A549): 44.2 µM
- IC50 (MDA-MB-231): > 50 µM
- IC50 (MCF7 [25]): > 50 µM
- IC50 (B16-F10): 42.2 µM
- IC50 (DU-145): 20.4 µM

Structure (SMILES): Cc1ccsc1CN(C(=O)Nc1ccc(Cl)c(C(F)(F)F)c1)n1cnnc1
- IC50 (A549): 26.2 µM
- IC50 (MDA-MB-231): 29.6 µM
- IC50 (MCF7 [25]): 30.1 µM
- IC50 (B16-F10): 22.1 µM
- IC50 (DU-145): 24.1 µM

Structure (SMILES): COc1ccc(OC)c(CN(C(=S)NC2CCCCC2)n2cnnc2)c1
- IC50 (A549): 21.5 µM
- IC50 (MDA-MB-231): > 50 µM
- IC50 (MCF7 [25]): > 50 µM
- IC50 (B16-F10): 39.5 µM
- IC50 (DU-145): 29.8 µM

Structure (SMILES): CCc1ccc(NC(=S)N(Cc2ccc(OC)c(OC)c2)n2cnnc2)cc1
- IC50 (A549): 28.4 µM
- IC50 (MDA-MB-231): > 50 µM
- IC50 (MCF7 [25]): > 50 µM
- IC50 (B16-F10): 22.9 µM
- IC50 (DU-145): > 50 µM
